Laboratory results taken from patent US20190209539A1, “THIOHYDANTOIN ANDROGEN RECEPTOR ANTAGONISTS FOR THE TREATMENT OF CANCER” (Janssen Pharmaceutica NV, priority 2016, published 2019).
Numbering of substitutions follows the chain as printed. Values belong to the compound of their own block, whether it stands above or below them.

Experiments:
[1] = biological target: T1, wild-type Androgen Receptor (AR-wt) (Homo sapiens, UniProt P10275); experiment: LNCaP-AR-wt ANT: ARE luciferase reporter assay, antagonist mode; assay type: cell-based
T1 construct: expressed in transfected cells; host or cells: LNCaP AR (cs) cells with ARE firefly luciferase lentiviral construct
T1 sequence (P10275 1-920): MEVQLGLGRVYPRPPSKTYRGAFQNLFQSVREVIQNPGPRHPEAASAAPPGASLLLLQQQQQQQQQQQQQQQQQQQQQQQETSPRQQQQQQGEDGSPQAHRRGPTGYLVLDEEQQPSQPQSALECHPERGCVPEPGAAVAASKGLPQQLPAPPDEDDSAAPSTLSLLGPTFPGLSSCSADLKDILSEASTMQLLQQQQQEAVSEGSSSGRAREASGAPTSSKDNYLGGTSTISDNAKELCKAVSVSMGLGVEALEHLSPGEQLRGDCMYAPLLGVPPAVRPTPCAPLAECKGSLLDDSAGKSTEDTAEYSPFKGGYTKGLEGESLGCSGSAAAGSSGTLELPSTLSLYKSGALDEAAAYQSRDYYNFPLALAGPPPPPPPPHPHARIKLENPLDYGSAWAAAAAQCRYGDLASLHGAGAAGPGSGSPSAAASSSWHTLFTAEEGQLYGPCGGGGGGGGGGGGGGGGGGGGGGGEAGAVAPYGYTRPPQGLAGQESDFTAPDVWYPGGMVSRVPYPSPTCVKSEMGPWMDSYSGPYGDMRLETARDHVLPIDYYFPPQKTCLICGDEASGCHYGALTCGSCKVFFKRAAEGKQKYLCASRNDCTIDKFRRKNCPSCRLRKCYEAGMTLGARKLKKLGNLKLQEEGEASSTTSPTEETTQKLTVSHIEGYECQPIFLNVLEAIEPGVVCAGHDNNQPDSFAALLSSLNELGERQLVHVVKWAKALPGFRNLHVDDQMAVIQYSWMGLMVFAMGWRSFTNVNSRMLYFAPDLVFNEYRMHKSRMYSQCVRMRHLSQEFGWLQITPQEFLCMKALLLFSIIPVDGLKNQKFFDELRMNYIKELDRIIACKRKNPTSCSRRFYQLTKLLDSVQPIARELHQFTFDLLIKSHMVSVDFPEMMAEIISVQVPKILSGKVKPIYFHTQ
Method: (§1) A stable pooled-population cell line was generated using puromycin (Life Technologies) selection at 1:10,000 v/v. The protocol below was used for both cell lines and for testing of the compounds of Formula (I) of the present invention.
(§2) LNCaP cells were grown to about 80% confluence, media removed and cells rinsed in Hank's balanced salt solution prior to separation from the plate with 0.05% Trypsin EDTA. Cells were lifted and trypsin negated in complete CSS (charcoal stripped serum) culture media. […] Agonist challenge was at 400 pM for WT assay and 600 pM for F876L assay. Plates containing cells and compounds herein were incubated for a further 20-24 hours at 37° C., 5% CO2 before addition of 40 μL/well of Steady-Glo Luciferase Assay System Reagent (Promega# E2520). After 1 h, plates were read for luminescence on a BMG Pherastar.
(§3) EC/IC50 calculations were achieved utilizing calculated RLU data and data fitting macros. Data were fit using least-squares methods to the following formula: […]
(§4) As used herein: pIC50 is defined as—Log10(IC50 expressed in [Molar]). pEC50 is defined as—Log10(EC50 expressed in [Molar]). […] LNCaP-AR-wt ANT refers to the reporter assay using LNCaP cells stably transfected with the Androgen Response Element Firefly Luciferase lentiviral construct and wild-type Androgen Receptor (AR-wt) in Antagonist mode. […]

[2] = biological target: T1, wild-type Androgen Receptor (AR-wt); experiment: LNCaP-AR-wt AG: ARE luciferase reporter assay, agonist mode; assay type: cell-based
Method: as §1, §2, §3
(§5) As used herein: pIC50 is defined as—Log10(IC50 expressed in [Molar]). pEC50 is defined as—Log10(EC50 expressed in [Molar]). […] LNCaP-AR-wt ANT refers to the reporter assay using LNCaP cells stably transfected with the Androgen Response Element Firefly Luciferase lentiviral construct and wild-type Androgen Receptor (AR-wt) in Antagonist mode. LNCaP-AR-wt AG refers to the reporter assay using LNCaP cells stably transfected with the Androgen Response Element Firefly Luciferase lentiviral construct and wild-type Androgen Receptor (AR-wt) in Agonist mode. LNCaP-AR-F876L ANT refers to the reporter assay using LNCaP cells stably transfected with the Androgen Response Element Firefly Luciferase lentiviral construct and F876L mutant Androgen Receptor (AR-F876L) in Antagonist mode. LNCaP-AR-F876L AG refers to the reporter assay using LNCaP cells stably transfected with the Androgen Response Element Firefly Luciferase lentiviral construct and F876L mutant Androgen Receptor (AR-F876L) in Agonist mode.

[3] = biological target: T2, F876L mutant Androgen Receptor (AR-F876L) (Homo sapiens, UniProt P10275, F877L); experiment: LNCaP-AR-F876L ANT: ARE luciferase reporter assay, antagonist mode; assay type: cell-based
T2 construct: expressed in transfected cells; host or cells: LNCaP F876L cells with ARE firefly luciferase lentiviral construct
T2 sequence (P10275 1-920 F877L): T1 sequence (P10275 1-920) with F877L
Method: as §1, §2, §3, §4

[4] = biological target: T2, F876L mutant Androgen Receptor (AR-F876L); experiment: LNCaP-AR-F876L AG: ARE luciferase reporter assay, agonist mode; assay type: cell-based
Method: as §1, §2, §3, §5

[5] = system: androgen dependent signaling (androgen sensitive organs, ASO); experiment: Hershberger Assay; assay type: in vivo, Sprague-Dawley rats; conditions: p≤0.05, in all 5 organs
Method: The effect of AR antagonists on androgen dependent signaling in vivo was assessed using the Hershberger assay. In this assay, peripubertal castrated male Sprague-Dawley rats were administered AR antagonists described herein in the presence of testosterone (0.4 mg/kg testosterone propionate) and the weights of androgen dependent organs measured. Dosing was continued for 10 days and measurements taken 24 h after the last dose. The extent of antagonism of AR and consequent inhibition of organ growth was evaluated by comparison to the castration control. Compounds of Formula (I) were dosed orally QD and an endpoint assessment made by change in weight of 5 androgen sensitive organs (ASO): Paired Cowper's Glands (CG), Seminal Vesicles with Fluids and Coagulating Glands (SVCG), Glans Penis (GP), Ventral Prostate (VP) and Levator Ani-Bulbocavernosus Complex (LABC)). According to assay guidelines, statistically significant suppression of ASO is required in 2 of 5 organs for a compound to be classified as an anti-androgen (analysis was performed by t-test/Mann-Whitney).
Compounds defined herein were administered at the indicated dose (mg/kg) and flutamide (FT), positive control, at 3 mg/kg. […]

T877A AR mutant = biological target: T3, T877A AR mutant (Homo sapiens, UniProt P10275, T878A); conditions: cited from earlier work
T3 sequence (P10275 1-920 T878A): T1 sequence (P10275 1-920) with T878A

[6] = maximum % stimulation (agonist response), % of 1 μM R-1881 max

- IC50 ([1]; antagonist mode, 400 pM R-1881 challenge, read-out: LNCaP-AR-wt ANT pIC50 (converted)): 417 nM
- Emax ([1]; maximum % inhibition of R1881 control response over tested concentration range, read-out: LNCaP-AR-wt ANT MAX % Inh): 97.8%
- EC50 ([2]; agonist mode, read-out: LNCaP-AR-wt AG pEC50 (converted)): > 15100 nM
- Emax ([2]; maximum % stimulation (agonist response), % of 1 μM R-1881 max, read-out: LNCaP-AR-wt AG MAX % Stim): 1.2%
- IC50 ([3]; antagonist mode, 600 pM R-1881 challenge, read-out: LNCaP-AR-F876L ANT pIC50 (converted)): 389 nM
- Emax ([3]; maximum % inhibition of R1881 control response over tested concentration range, read-out: LNCaP-AR-F876L ANT MAX % Inh): 98.9%
- EC50 ([4]; agonist mode, read-out: LNCaP-AR-F876L AG pEC50 (converted)): > 15100 nM
- Emax ([4]; maximum % stimulation (agonist response), % of 1 μM R-1881 max, read-out: LNCaP-AR-F876L AG MAX % Stim): 0.8%
Compound: CNC(=O)c1ccc(N2C(=S)N(c3cnc(C#N)c(C)c3)C(=O)C23CCCC3)cc1F [Cpd 65, 4-[7-(6-cyano-5-methyl-3-pyridyl)-6-oxo-8-thioxo-7,9-diazaspiro[4.4]nonan-9-yl]-2-fluoro-N-methyl-benzamide]

Compound: CN1CCN(CCCc2ccc(N3C(=S)N(c4cnc(C#N)c(C(F)(F)F)c4)C(=O)C34CCC4)cc2)CC1 [Cpd 43, 5-[8-[4-[3-(4-methylpiperazin-1-yl)propyl]phenyl]-5-oxo-7-thioxo-6,8-diazaspiro[3.4]octan-6-yl]-3-(trifluoromethyl)pyridine-2-carbonitrile]
- LNCaP-AR-wt AG MAX % Stim [2, 6]: 0.7%
- LNCaP-AR-F876L AG MAX % Stim [4, 6]: 0.4%
- reduction in ASO versus TP control [5]: significant reduction

Compound: N#Cc1ncc(N2C(=O)C3(CCC3)N(c3ccc(Oc4cncnc4)cc3)C2=S)cc1C(F)(F)F [Cpd 88, 5-[5-oxo-8-(4-pyrimidin-5-yloxyphenyl)-7-thioxo-6,8-diazaspiro[3.4]octan-6-yl]-3-(trifluoromethyl)pyridine-2-carbonitrile]
- LNCaP-AR-wt AG MAX % Stim [2, 6]: 0.7%
- LNCaP-AR-F876L AG MAX % Stim [4, 6]: 0.7%

Compound: CC(C)(O)C(=O)Nc1ccc([N+](=O)[O-])c(C(F)(F)F)c1 [hydroxyflutamide]
- activity in T877A AR mutant (T877A AR mutant): act as AR agonists

Compound: CC(C)CCNC(=O)c1ccc(N2C(=S)N(c3cnc(C#N)c(C(F)(F)F)c3)C(=O)C23CCC3)cc1F [Cpd 27, 4-[6-[6-cyano-5-(trifluoromethyl)-3-pyridyl]-5-oxo-7-thioxo-6,8-diazaspiro[3.4]octan-8-yl]-2-fluoro-N-isopentyl-benzamide]
- LNCaP-AR-wt AG MAX % Stim [2, 6]: 0.4%
- LNCaP-AR-F876L AG MAX % Stim [4, 6]: 0.2%
